Test results as given in ChEMBL document CHEMBL5550186, “Exploring the Potential of Cyclic Peptidyl Antitumor Agents Derived from Natural Macrocyclic Peptide Phakellistatin 13” (J Med Chem, 2024).
The source made the active and inactive calls. The calls are words filed in the database; no cut-off is given here.

Legend:
[1] = Upregulation of DUSP6 expression level in human HepG2 cells assessed as fold change by KEGG enrichment analysis; format: functional
HepG2 [2] = assay: Induction of cell cycle arrest in human HepG2 cells assessed as assessed as accumulation of cells at >G2/M phase at 10 uM incubated for 12 hrs by PI staining based flow cytometry analysis (reference value: 28.0%); format: functional
Cell membrane = assay: Induction of mitochondrial membrane potential loss in human HepG2 cells assessed as decrease in fluorescence measured after 48 hrs by Rhodamine 123 staining based flow cytometry; format: cell membranes; conditions: dose 5-20 µM
HepG2 [3] = assay: Induction of cell cycle arrest in human HepG2 cells assessed as accumulation of cells at 2N phase at 10 uM incubated for 48 hrs by PI staining based flow cytometry analysis (reference value: 26.0%); format: functional
HepG2 [4] = assay: Induction of cell cycle arrest in human HepG2 cells incubated for 48 hrs by PI staining based flow cytometry analysis; format: functional; conditions: dose 5-20 µM
HepG2 [5] = assay: Induction of morphological changes in human HepG2 cells assessed as appearance of round morphology at 40 uM measured after 12 to 24 hrs by fluorescence inverted microscopic analysis; format: functional, cell-based; conditions: time 12-24 hrs
HepG2 [6] = assay: Induction of apoptosis in human HepG2 cells assessed as necrotic cells at 5 uM incubated for 48 hrs by annexin V-FITC/PI staining based flow cytometry analysis (reference value: 0%); format: functional
HepG2 [7] = assay: Induction of apoptosis in human HepG2 cells assessed as late apoptotic cells at 20 uM incubated for 48 hrs by annexin V-FITC/PI staining based flow cytometry analysis (reference value: 0.16%); format: functional
[8] = Upregulation of ATF4 expression level in human HepG2 cells assessed as fold change by KEGG enrichment analysis; format: functional
4T1 = assay: Antitumor activity in mouse 4T1 cells xenografted in Balb/c mouse assessed as inhibition of tumor growth at 6 mg/kg, iv measured every two days for 14 days; format: functional, organism-based; conditions: time 14.0 day
MDA-MB-231 = assay: Antiproliferative activity against human MDA-MB-231 cells incubated for 48 hrs by MTT assay; format: functional, cell-based; conditions: MDA-MB-231, 48 h
HepG2 [9] = assay: Antiproliferative activity against human HepG2 cells incubated for 48 hrs by MTT assay; format: functional, cell-based; conditions: HepG2, 48 h
[10] = Antiproliferative activity against mouse L929 cells incubated for 48 hrs by MTT assay; format: toxicity, cell-based
HepG2 [11] = assay: Induction of cell cycle arrest in human HepG2 cells assessed as accumulation of cells at S phase at 10 uM incubated for 24 hrs by PI staining based flow cytometry analysis (reference value: 39.6%); format: functional
HepG2 [12] = assay: Upregulation of cytochrome c level in human HepG2 cells at 5 to 20 uM measured after 48 hrs by Western blot analysis; format: functional, cell-based; conditions: dose 5-20 µM
HepG2 [13] = assay: Induction of apoptosis in human HepG2 cells assessed as early apoptotic cells at 20 uM incubated for 48 hrs by annexin V-FITC/PI staining based flow cytometry analysis (reference value: 0.50%); format: functional
HepG2 [14] = assay: Induction of morphological changes in human HepG2 cells assessed as cell shrinkage at 40 uM measured after 12 to 24 hrs by fluorescence inverted microscopic analysis; format: functional, cell-based; conditions: time 12-24 hrs
HepG2 [15] = assay: Induction of apoptosis in human HepG2 cells assessed as increase in caspase 3 activity at 5 to 10 uM measured after 24 hrs by green-nuc staining based fluorescence microscopic analysis; format: functional, cell-based; conditions: dose 5-10 µM
HepG2 [16] = assay: Induction of apoptosis in human HepG2 cells assessed as increase in intracellular calcium level at 10 uM measured after 24 hrs by fluo-3AM dye based flow cytometry analysis; format: functional, cell-based
HepG2 [17] = assay: Induction of cell cycle arrest in human HepG2 cells assessed as accumulation of cells at <2N phase at 5 uM incubated for 48 hrs by PI staining based flow cytometry analysis (reference value: 0.027%); format: functional
HepG2 [18] = assay: Induction of apoptosis in human HepG2 cells assessed as necrotic cells at 20 uM incubated for 48 hrs by annexin V-FITC/PI staining based flow cytometry analysis (reference value: 0%); format: functional
HepG2 [19] = assay: Induction of apoptosis in human HepG2 cells assessed as early apoptotic cells at 10 uM incubated for 48 hrs by annexin V-FITC/PI staining based flow cytometry analysis (reference value: 0.50%); format: functional

Compound: CC(C)C[C@H]1NC(=O)[C@H]([C@@H](C)OCc2ccccc2)NC(=O)[C@H]2CCCN2C(=O)CN2C(=O)c3ccccc3[C@@]2(O)CN(Cc2ccccc2)C(=O)[C@H](Cc2ccccc2)NC(=O)[C@H]2CCCN2C(=O)[C@H](Cc2c[nH]c3ccccc23)NC1=O
- fold change (FC) [1]: 1.112
- Activity (HepG2 [2]): 4.68%
- Activity (Cell membrane): Dose-Dependent Effect
- Activity (HepG2 [3]): 33.5%
- Activity (HepG2 [4]): Dose-Dependent Effect
- Activity (HepG2 [5]): Active
- Activity (HepG2 [6]): 0%
- Activity (HepG2 [7]): 6.88%
- fold change (FC) [8]: 1.43
- Activity (4T1): Active
- IC50 (MDA-MB-231): 12.8 µM
- IC50 (HepG2 [9]): 11.6 µM
- IC50 at 48 h [10]: > 100 µM
- Activity (HepG2 [11]): 14.3%
- Activity (HepG2 [12]): Active
- Activity (HepG2 [13]): 41.1%
- Activity (HepG2 [14]): Active
- Activity (HepG2 [15]): Active
- Activity (HepG2 [16]): Active
- Activity (HepG2 [17]): 37.3%
- Activity (HepG2 [18]): 0.02%
- Activity (HepG2 [19]): 27.3%
